Patent US6998395B2, “Administration of estradiol metabolites for the treatment or prevention of obesity, metabolic syndrome, diabetes, and vascular and renal disorders” (University of Pittsburg,, priority 2001, dated 2006)

Columns and labels:
[1] = tested on: male obese ZSF1 rats; test: Heart performance, arterial blood pressure and renal hemodynamics in anesthetized ZSF1 rats after 26 weeks of treatment; type: in vivo, rat; conditions: for Glomerular Filtration Rate / Renal Blood Flow / Renal Vascular Resistance: 26 weeks (approximately 6 months) of treatment; for Glomerular Filtration Rate: 14C-inulin clearance
Source text: (§1) After 26 weeks of treatment, animals were anesthetized and instrumented for assessment of heart performance, renal hemodynamics and mesenteric vascular reactivity. A PE-50 catheter was advanced via the carotid artery into the left ventricle and connected to a heart-performance analyzer (Micro-Med, Inc., Louisville, Ky.) for continuous measurement of ten time/pressure variables. A PE-50 catheter was inserted into the femoral artery and connected to a blood pressure analyzer (Micro-Med, Inc.) for measurement of arterial blood pressure. A PE-10 catheter was inserted into the left ureter for urine collection, and a flow probe (Transonic Systems, Inc., Ithaca, N.Y.) was placed on the left renal artery for determination of renal blood flow. An infusion of ^14C-inulin (0.035 uCi/20 ul saline/min) was initiated, and after 60 minutes, two 30-minute clearance periods were conducted. A mid-point blood sample (300 ul) for measurement of radioactivity was collected. Plasma and urine ^14C-inulin radioactivity were measured, and renal clearance of ^14C-inulin was calculated. A flow probe was placed on the mesenteric artery for determination of mesenteric blood flow, and a 32-gauge needle was inserted into the mesenteric artery and attached to a Y-connector for dual intramesenteric artery infusions (25 ul/min each). Angiotensin II (30 ng/min) plus methoxamine (3 ug/min) was delivered via one intramesenteric artery infusion line into the mesenteric vascular bed to the mesenteric vascular bed. Next, vascular responses to increasing doses of acetylcholine (0.3, 1.0 and 3.0 ug/min, 5 minutes per dose) and sodium nitroprusside (0.5, 1.5 and 5.0 ug/min, 5 minutes per dose) were elicited by infusing these agents via the other intramesenteric artery infusion line into the mesenteric vascular bed. Vascular resistances were calculated as arterial blood pressure divided by blood flow.
All values refer to means±SEM for 9 to 10 animals in each group. Statistical significance was calculated using either an unpaired Student's t-test or a 2-factor analysis of variance (repeated measures) followed by a Fisher's Least Significance Difference test if appropriate. The criterion of significance was p<0.05.

[2] = tested on: mesenteric vascular bed of male obese ZSF1 rats; test: Mesenteric vascular reactivity to acetylcholine and sodium nitroprusside after 26 weeks of treatment; type: in vivo, rat; conditions: 10 ug/kg/hour s.c., versus control; for Vasodilation induced by sodium nitroprusside (mesenteric vascular resistance, FIG. 3): sodium nitroprusside 0.5, 1.5, 5.0 ug/min
Source text: as §1, with “Next, vascular responses to increasing doses of acetylcholine (0.3, 1.0 and 3.0 ug/min, 5 minutes per dose) and sodium nitroprusside (0.5, 1.5 and 5.0 ug/min, 5 minutes per dose) were elicited by infusing these agents via the other intramesenteric artery infusion line into the mesenteric vascular bed.” left out
All values refer to means±SEM for 9 to 10 animals in each group. Statistical significance was calculated using either an unpaired Student's t-test or a 2-factor analysis of variance (repeated measures) followed by a Fisher's Least Significance Difference test if appropriate. […]

[3] = anesthetized, listed as 2-Hydroxyestradiol
[4] = Table 2, after approximately 6 months of treatment

C[C@]12CC[C@@H]3c4cc(O)c(O)cc4CC[C@H]3[C@@H]1CC[C@@H]2O [2-hydroxyestradiol, estra-1,3,5 (10)-triene-2,3,1 7-triol (17β)]
Mean arterial blood pressure ([1]; 10 ug/kg/hour s.c., 26 weeks of treatment, anesthetized): 122±5 mm Hg
Effects on heart performance in situ ([1]; 10 ug/kg/hour s.c., chronic treatment (26 weeks), versus control): no effects
Glomerular Filtration Rate [1]: did not affect
Glomerular Filtration Rate ([1]; listed as 2-Hydroxyestradiol): 0.76 ± 0.09 ml/min/gram kidney
Renal Blood Flow ([1]; anesthetized): did not affect
Renal Vascular Resistance ([1]; anesthetized): did not affect
Renal Blood Flow [1, 3]: 3.3 ± 0.6 ml/min/gram kidney
Renal Vascular Resistance [1, 3]: 42 ± 7 mm Hg/ml/min/gram kidney
+dP/dtmax [1, 4]: 11,805 ± 943 mm Hg/sec
+dP/dtmax/Ventricular Peak Systolic Pressure [1, 4]: 69.9 ± 2.5 s⁻¹
Duration of Contraction [1, 4]: 38.8 ± 3.5 ms
Duration of Relaxation [1, 4]: 96.3 ± 6.3 ms
Half-Time of Ventricular Relaxation [1, 4]: 49.1 ± 3.6 ms
Heart Rate [1, 4]: 352 ± 9 beats/min
Heart Rate × Ventricular Peak Systolic Pressure [1, 4]: 60,949 ± 4,237 [beats/min] × mm Hg
Mean Blood Pressure [1, 4]: 122 ± 5 mm Hg
Time Constant of Ventricular Relaxation [1, 4]: 16.7 ± 1.9 ms
Ventricular End Diastolic Pressure [1, 4]: 4.2 ± 1.0 mm Hg
Ventricular Minimum Diastolic Pressure [1, 4]: −1.4 ± 1.1 mm Hg
Ventricular Peak Systolic Pressure [1, 4]: 172 ± 9 mm Hg
−dP/dtmax [1, 4]: 6853 ± 382 mm Hg/sec
Decreases in mesenteric vascular resistance induced by acetylcholine (FIG. 2) ([2]; acetylcholine 0.3, 1.0, 3.0 ug/min): greater
Vasodilation induced by sodium nitroprusside (mesenteric vascular resistance, FIG. 3) [2]: non-significant effect
Vasodilation induced by sodium nitroprusside (mesenteric vascular resistance, FIG. 3) ([2]; listed as 2-Hydroxyestradiol): only slightly (non-significantly) enhanced
